Laboratory results from patent US12714698B2, “Compositions and methods for treating or preventing dermal disorders” (Drexel University, priority 2015, dated 2026).
Entries after “also recorded” stand apart in the source; their conditions may differ.

Assays:
human fibroblasts = assay: Long-term culture of human fibroblasts with or without rapamycin (lifespan, organization, p21 and IL-6 expression); format: cell-based
Description: FIG. 13 is a graph illustrating the finding that rapamycin treatment provides lifespan extension in human fibroblasts. Human fibroblast cells were growth in culture medium with or without rapamycin (1 nM). Cultures were split every 7 days and reseeded at identical cell number/cm^2 each week. The lifespan of normal human fibroblasts is counted by the number of times that the cells double.
FIG. 14 illustrates the finding that rapamycin preserves cell organization during aging of human fibroblasts. […] The ability to organize is a critical element of normal fibroblast function and contributes to tissue integrity in normal tissue. The disorganization which occurs with age contributes to functional decline.
FIG. 17 is a bar graph illustrating the finding that rapamycin prevents the expression of genes that cause senescence. The p21 gene makes a protein that is critical for senescence of human fibroblasts.
FIG. 18 is a bar graph illustrating the finding that rapamycin prevents the expression of genes related to inflammation. The IL-6 gene makes a protein that activates the immune system to recruit immune cells into an area of tissue damage.
(§1) Cell culture experiments utilizing NRTIs were of the following design. Cultures of either human lung or cardiac fibroblasts were cultivated according to standard culture protocols for these cells (Cristofalo, et al., Journal of Tissue Culture Methods 1980, 6:117-121). Parallel sets of cultures were maintained in normal growth media or in normal growth media with the addition of 1 nM rapamycin. Cultures were maintained with 1 nM rapamycin (Enzo Biologicals) for two weeks before exposure to NRTIs. Cell cultures were exposed to NRTIs at indicated concentrations in individual experiments (generally 10-20 μg/ml) for 7 days, with a change of media and fresh NRTIs at day 4. Mitochondrial measurements, bioanalyzer measurements, immunoblotting for protein expression and phosphorylation status, and assays for senescence were performed at the end of this 7-day period.

Lung fibroblasts = assay: Senescence markers in lung fibroblasts exposed to NRTIs; format: cell-based, human
Description: as §1
Cell culture reagents were from Cellgro, unless indicated. WI-38 fetal-lung primary human fibroblasts or human cardiac fibroblasts were grown in MEM supplemented with 10% fetal bovine serum, 1% L-glutamine, MEM vitamins, and MEM non-essential amino acids. Cells were maintained in a 37° C. in 5% CO2 incubator. For treatment studies, cells were treated with 1 nM rapamycin (Enzo Biologicals) for two weeks before treatment with NRTIs. […]

p53 and MDM2 = assay: p53/MDM2 co-immunoprecipitation and p53 forms after proteasome inhibition; format: cell-based, human; conditions: after proteasome inhibitor
Description: FIGS. 11A-11F illustrate status of p53 in human cardiac fibroblast cultures exposed to NRTIs and in rapamycin-treated cultures. FIG. 11A is a bar graph illustrating comet assay results for cells exposed to NRTIs or hydrogen peroxide as a positive control. The white bar represents control data; grey bar represents data from cells exposed to 10 or 20 μg/ml NRTI for 7 days; and the black bar represents data from cells exposed to 200 μM hydrogen peroxide for 2 hours. […] FIG. 11B depicts the results of an immunoprecipitation experiment using antibodies against p53. Cell lysates from control and rapamycin-treated cultures, with or without NRTI exposure for 7 days, were subjected to immunoprecipitation using anti-p53 antibodies followed by immunoblot analysis for MDM2 and subsequently for p53. […] FIG. 11F is a bar graph illustrating relative intensity of cytosolic MDM2 staining as determined by Image J Analysis.
Cell protein extracts were prepared by extracting with radioimmunoprecipitation assay (RIPA) buffer containing a protease inhibitor cocktail (Sigma-Aldrich) and phosphatase inhibitors, NaF and sodium orthovanadate. Protein concentration was quantified using a bicinchoninic acid (BCA) assay (Pierce Biotechnology). […] For co-immunoprecipitation, cell protein extracts were prepared in HNTG buffer containing a protease inhibitor cocktail and quantified using BCA assay. […]

[1] = cells grown in the presence of rapamycin

SMILES: CO[C@H]1C[C@@H]2CC[C@@H](C)[C@@](O)(O2)C(=O)C(=O)N2CCCC[C@H]2C(=O)O[C@H]([C@H](C)C[C@@H]2CC[C@@H](O)[C@H](OC)C2)CC(=O)[C@H](C)/C=C(\C)[C@@H](O)[C@@H](OC)C(=O)[C@H](C)C[C@H](C)/C=C/C=C/C=C/1C [rapamycin]
- IL-6 expression as cells age (human fibroblasts; [1]): do not produce IL-6
- p21 expression as cells age (human fibroblasts; [1]): do not produce p21
- cell organization during aging (human fibroblasts; low doses of rapamycin): maintained an orderly growth pattern
- replicative lifespan (number of times that the cells double) (human fibroblasts; rapamycin 1 nM in culture medium): extend replicative lifespan; also recorded: well beyond the normal lifespan
- effect of rapamycin treatment on NRTI-induced senescence markers (Lung fibroblasts): protection
- high molecular weight forms of p53 (p53 and MDM2): prominent
